Laboratory results taken from US11180462B2, “Microbiocidal oxadiazole derivatives” (SYNGENTA PARTICIPATIONS AG, priority 2015, dated 2021).

Tests used:
[1] = test system: Phakopsora Pachyrhizi; experiment: Fungicidal activity against Phakopsora pachyrhizi / soybean / leaf disc preventative (Asian soybean rust); assay type: in vivo; details: foliar, 200 ppm in the applied formulation, soybean leaf disks, compared to untreated control leaf disks, read-out: disease control
Outline: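 Preventative soybean leaf-disc test: discs on water agar sprayed with diluted formulated compound, inoculated one day later with spores on the lower surface. Held 24–36 h dark at 20°C, 75% rh, then 12 h light/day; percent disease control versus untreated discs scored 12–14 days after application.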

[2] = test system: Puccinia recondita f. Sp. Tritici; experiment: Fungicidal activity against Puccinia recondita f. sp. tritici / wheat / leaf disc curative (brown rust); assay type: in vivo; details: foliar, 24 h, 200 ppm in the applied formulation, wheat leaf segments, curative (applied 1 day after inoculation), compared to untreated control leaf disks, read-out: disease control
Outline: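 Inoculate cv. Kanzler segments on agar; hold dark, 19° C, 75% RH. Spray diluted formulated compound at day 1. Incubate 12 h light/12 h dark, same temperature and humidity; score % control vs untreated 6–8 days later.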

[3] = test system: Puccinia recondita f. Sp. Tritici; experiment: Fungicidal activity against Puccinia recondita f. sp. tritici / wheat / leaf disc preventative (brown rust); assay type: in vivo; details: foliar, 200 ppm in the applied formulation, wheat leaf segments, preventative, compared to untreated control leaf disks, read-out: disease control
Outline: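 Preventative leaf-segment test, wheat cv. Kanzler on water agar. Spray compound at 200 ppm, inoculate with spores 1 day later; 19° C., 75% rh, 12/12 h light. Read-out: % disease control vs untreated, 7 to 9 days after application.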

[4] = test system: Glomerella lagenarium (Colletotrichum lagenarium); experiment: Fungicidal activity against Glomerella lagenarium (Colletotrichum lagenarium) liquid culture / cucumber / preventative (anthracnose); assay type: cell-based; details: Colletotrichum orbiculare; 20 ppm in the applied formulation; liquid culture (PDB), growth inhibition measured photometrically after 3 to 4 days; compared to untreated control; read-out: disease control
Outline: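 Photometric read-out of fungal growth after 2–7 days, expressed as percent antifungal activity versus untreated check. Cryo-stored conidia in PDB; compound at 20 ppm; dark, 24 °C, 96% RH.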

CON(Cc1ccc(-c2noc(C(F)(F)F)n2)cc1)C(=O)C(C)(C)C [Compound 1.42, N-methoxy-2,2-dimethyl-N-[[4-[5-(trifluoromethyl)-1,2,4-oxadiazol-3-yl]phenyl]methyl]-propanamide]
≥ 80%: pest or weed control at 200 ppm [1] | pest or weed control at 200 ppm [2] | pest or weed control at 200 ppm [3] | inhibition of growth at 20 ppm [4]

CON(Cc1ccc(-c2noc(C(F)(F)F)n2)cc1)C(=O)C1CC1C (centres unmarked) [Compound 1.40, N-methoxy-2-methyl-N-[[4-[5-(trifluoromethyl)-1,2,4-oxadiazol-3-yl]phenyl]methyl]-cyclopropane-carboxamide]
≥ 80%: pest or weed control at 200 ppm [1] | pest or weed control at 200 ppm [2] | pest or weed control at 200 ppm [3] | inhibition of growth at 20 ppm [4]

COCC(=O)N(Cc1ccc(-c2noc(C(F)(F)F)n2)cc1)C(C)C [Compound 1.600, N-isopropyl-2-methoxy-N-[[4-[5-(trifluoromethyl)-1,2,4-oxadiazol-3-yl]phenyl]methyl]-acetamide]
≥ 80%: pest or weed control at 200 ppm [1] | pest or weed control at 200 ppm [2] | pest or weed control at 200 ppm [3] | inhibition of growth at 20 ppm [4]

CC(C)N(Cc1ccc(-c2noc(C(F)(F)F)n2)cc1)C(=O)C1CCOC1 (centres unmarked) [Compound 1.673, N-isopropyl-N-[[4-[5-(trifluoromethyl)-1,2,4-oxadiazol-3-yl]phenyl]methyl]-tetrahydrofuran-3-carboxamide]
≥ 80%: pest or weed control at 200 ppm [1] | pest or weed control at 200 ppm [2] | pest or weed control at 200 ppm [3] | inhibition of growth at 20 ppm [4]

CON(Cc1ccc(-c2noc(C(F)(F)F)n2)cc1F)C(=O)C1CCCO1 (centres unmarked) [Compound 1.563, N-[[2-fluoro-4-[5-(trifluoromethyl)-1,2,4-oxadiazol-3-yl]phenyl]methyl]-N-methoxy-tetrahydrofuran-2-carboxamide]
≥ 80%: pest or weed control at 200 ppm [1] | pest or weed control at 200 ppm [2] | pest or weed control at 200 ppm [3] | inhibition of growth at 20 ppm [4]

C#CCN(Cc1ccc(-c2noc(C(F)(F)F)n2)cc1)C(=O)CC(C)C [Compound 1.175, 3-methyl-N-prop-2-ynyl-N-[[4-[5-(trifluoromethyl)-1,2,4-oxadiazol-3-yl]phenyl]methyl]-butanamide]
≥ 80%: pest or weed control at 200 ppm [1] | pest or weed control at 200 ppm [2] | pest or weed control at 200 ppm [3] | inhibition of growth at 20 ppm [4]

CON(Cc1ccc(-c2noc(C(F)(F)F)n2)c(F)c1F)C(=O)C1CC1 [Compound 1.584, N-[[2,3-difluoro-4-[5-(trifluoromethyl)-1,2,4-oxadiazol-3-yl]phenyl]methyl]-N-methoxy-cyclopropane-carboxamide]
≥ 80%: pest or weed control at 200 ppm [1] | pest or weed control at 200 ppm [2] | pest or weed control at 200 ppm [3] | inhibition of growth at 20 ppm [4]

CC(C)N(Cc1ccc(-c2noc(C(F)(F)F)n2)cc1)C(=O)C1CCC1 [Compound 1.675, N-isopropyl-N-[[4-[5-(trifluoromethyl)-1,2,4-oxadiazol-3-yl]phenyl]methyl]-cyclobutane-carboxamide]
≥ 80%: pest or weed control at 200 ppm [1] | pest or weed control at 200 ppm [2] | pest or weed control at 200 ppm [3] | inhibition of growth at 20 ppm [4]

CCC(=O)N(Cc1ccc(-c2noc(C(F)(F)F)n2)cc1)CC(F)(F)F [Compound 1.582, N-(2,2,2-trifluoroethyl)-N-[[4-[5-(trifluoromethyl)-1,2,4-oxadiazol-3-yl]phenyl]methyl]-propanamide]
≥ 80%: pest or weed control at 200 ppm [1] | pest or weed control at 200 ppm [2] | pest or weed control at 200 ppm [3] | inhibition of growth at 20 ppm [4]

CC(C)C(NC(=O)C1CC1)C(=O)N(Cc1ccc(-c2noc(C(F)(F)F)n2)cc1)C1CC1 (centres unmarked) [Compound 1.132, N-[1-[cyclopropyl-[[4-[5-(trifluoromethyl)-1,2,4-oxadiazol-3-yl]phenyl]methyl]-carbamoyl]-2-methyl-propyl]-cyclopropane-carboxamide]
≥ 80%: pest or weed control at 200 ppm [1] | pest or weed control at 200 ppm [2] | pest or weed control at 200 ppm [3] | inhibition of growth at 20 ppm [4]

CON(Cc1ccc(-c2noc(C(F)(F)F)n2)cc1)C(=O)C1CC1 [Compound 1.2, N-methoxy-N-[[4-[5-(trifluoromethyl)-1,2,4-oxadiazol-3-yl]phenyl]methyl]-cyclopropane-carboxamide]
≥ 80%: pest or weed control at 200 ppm [1] | pest or weed control at 200 ppm [2] | pest or weed control at 200 ppm [3] | inhibition of growth at 20 ppm [4]

COCCCC(=O)N(Cc1ccc(-c2noc(C(F)(F)F)n2)cc1)C1CC1 [Compound 1.136, N-cyclopropyl-4-methoxy-N-[[4-[5-(trifluoromethyl)-1,2,4-oxadiazol-3-yl]phenyl]methyl]-butanamide]
≥ 80%: pest or weed control at 200 ppm [1] | pest or weed control at 200 ppm [2] | pest or weed control at 200 ppm [3] | inhibition of growth at 20 ppm [4]

CC(C)N(Cc1ccc(-c2noc(C(F)(F)F)n2)cc1)C(=O)C1CCCO1 (centres unmarked) [Compound 1.682, N-isopropyl-N-[[4-[5-(trifluoromethyl)-1,2,4-oxadiazol-3-yl]phenyl]methyl]-tetrahydrofuran-2-carboxamide]
≥ 80%: pest or weed control at 200 ppm [1] | pest or weed control at 200 ppm [2] | pest or weed control at 200 ppm [3] | inhibition of growth at 20 ppm [4]

O=C(C1CC1(Cl)Cl)N(Cc1ccc(-c2noc(C(F)(F)F)n2)cc1)C1CC1 (centres unmarked) [Compound 1.125, 2,2-dichloro-N-cyclopropyl-N-[[4-[5-(trifluoromethyl)-1,2,4-oxadiazol-3-yl]phenyl]methyl]-cyclopropane-carboxamide]
≥ 80%: pest or weed control at 200 ppm [1] | pest or weed control at 200 ppm [2] | pest or weed control at 200 ppm [3] | inhibition of growth at 20 ppm [4]

O=C(C1CC1(F)F)N(Cc1ccc(-c2noc(C(F)(F)F)n2)cc1)C1CC1 (centres unmarked) [Compound 1.89, N-cyclopropyl-2,2-difluoro-N-[[4-[5-(trifluoromethyl)-1,2,4-oxadiazol-3-yl]phenyl]methyl]-cyclopropane-carboxamide]
≥ 80%: pest or weed control at 200 ppm [1] | pest or weed control at 200 ppm [2] | pest or weed control at 200 ppm [3] | inhibition of growth at 20 ppm [4]

CON(Cc1ccc(-c2noc(C(F)(F)F)n2)cc1F)C(=O)C1CC1 [Compound 1.566, N-[[2-fluoro-4-[5-(trifluoromethyl)-1,2,4-oxadiazol-3-yl]phenyl]methyl]-N-methoxy-cyclopropane-carboxamide]
≥ 80%: pest or weed control at 200 ppm [1] | pest or weed control at 200 ppm [2] | pest or weed control at 200 ppm [3] | inhibition of growth at 20 ppm [4]

CON(Cc1ccc(-c2noc(C(F)(F)F)n2)cc1)C(=O)NCC1(C#N)CC1 [Compound 3.40, 3-[(1-cyanocyclopropyl)-methyl]-1-methoxy-1-[[4-[5-(trifluoromethyl)-1,2,4-oxadiazol-3-yl]phenyl]methyl]urea]
≥ 80%: pest or weed control at 200 ppm [1] | pest or weed control at 200 ppm [2] | pest or weed control at 200 ppm [3] | inhibition of growth at 20 ppm [4]

CC(C)C(=O)N(CCO)Cc1ccc(-c2noc(C(F)(F)F)n2)cc1 [Compound 1.707, N-(2-hydroxyethyl)-2-methyl-N-[[4-[5-(trifluoromethyl)-1,2,4-oxadiazol-3-yl]phenyl]methyl]-propanamide]
≥ 80%: pest or weed control at 200 ppm [1] | pest or weed control at 200 ppm [2] | pest or weed control at 200 ppm [3] | inhibition of growth at 20 ppm [4]

C=CCN(Cc1ccc(-c2noc(C(F)(F)F)n2)cc1)C(=O)C1(C)COC1 [Compound 1.488, N-allyl-3-methyl-N-[[4-[5-(trifluoromethyl)-1,2,4-oxadiazol-3-yl]phenyl]methyl]-oxetane-3-carboxamide]
≥ 80%: pest or weed control at 200 ppm [1] | pest or weed control at 200 ppm [2] | pest or weed control at 200 ppm [3] | inhibition of growth at 20 ppm [4]

CCCON(Cc1ccc(-c2noc(C(F)(F)F)n2)cc1)C(=O)C(C)OC (centres unmarked) [Compound 1.316, 2-methoxy-N-propoxy-N-[[4-[5-(trifluoromethyl)-1,2,4-oxadiazol-3-yl]phenyl]methyl]-propanamide]
≥ 80%: pest or weed control at 200 ppm [1] | pest or weed control at 200 ppm [2] | pest or weed control at 200 ppm [3] | inhibition of growth at 20 ppm [4]
